Data: the NIST ThermoML archive (doi:10.1021/je060339m)

Settings: Liquid

CCOC(C)=O [ethyl acetate]
Settings | mass density [kg/m3]
298.15 K, 100 kPa | 894
298.15 K, 1000 kPa | 894.7
298.15 K, 2000 kPa | 895.7
298.15 K, 3000 kPa | 896.7
298.15 K, 3800 kPa | 897.4
298.15 K, 5000 kPa | 898.8
298.15 K, 10000 kPa | 903.4
298.15 K, 15000 kPa | 907.7
298.15 K, 20000 kPa | 912
298.15 K, 25000 kPa | 916.1
298.15 K, 30000 kPa | 921.1
298.15 K, 35000 kPa | 926.3
303.15 K, 100 kPa | 887.6
303.15 K, 1000 kPa | 888.5
303.15 K, 2000 kPa | 889.5
303.15 K, 3000 kPa | 890.5
303.15 K, 3800 kPa | 891.3
303.15 K, 5000 kPa | 892.7
303.15 K, 10000 kPa | 897.5
303.15 K, 15000 kPa | 902
303.15 K, 20000 kPa | 906.3
303.15 K, 25000 kPa | 910.7
303.15 K, 30000 kPa | 915.9
303.15 K, 35000 kPa | 921.2
308.15 K, 100 kPa | 881.4
308.15 K, 1000 kPa | 882.3
308.15 K, 2000 kPa | 883.3
308.15 K, 3000 kPa | 884.4
308.15 K, 3800 kPa | 885.3
308.15 K, 5000 kPa | 886.7
308.15 K, 10000 kPa | 891.7
308.15 K, 15000 kPa | 896.4
308.15 K, 20000 kPa | 900.9
308.15 K, 25000 kPa | 905.4
308.15 K, 30000 kPa | 910.7
308.15 K, 35000 kPa | 916.2
313.15 K, 100 kPa | 875.2
313.15 K, 1000 kPa | 876.1
313.15 K, 2000 kPa | 877.2
313.15 K, 3000 kPa | 878.3
313.15 K, 3800 kPa | 879.2
313.15 K, 5000 kPa | 880.6
313.15 K, 10000 kPa | 885.8
313.15 K, 15000 kPa | 890.7
313.15 K, 20000 kPa | 895.4
313.15 K, 25000 kPa | 899.8
313.15 K, 30000 kPa | 905.3
313.15 K, 35000 kPa | 910.9
318.15 K, 100 kPa | 868.8
318.15 K, 1000 kPa | 869.8
318.15 K, 2000 kPa | 871
318.15 K, 3000 kPa | 872.2
318.15 K, 3800 kPa | 873.1
318.15 K, 5000 kPa | 874.5
318.15 K, 10000 kPa | 880
318.15 K, 15000 kPa | 885.1
318.15 K, 20000 kPa | 889.8
318.15 K, 25000 kPa | 894.5
318.15 K, 30000 kPa | 900.1
318.15 K, 35000 kPa | 905.9
323.15 K, 100 kPa | 862.7
323.15 K, 1000 kPa | 864
323.15 K, 2000 kPa | 865.1
323.15 K, 3000 kPa | 866.2
323.15 K, 3800 kPa | 867.1
323.15 K, 5000 kPa | 868.6
323.15 K, 10000 kPa | 874.2
323.15 K, 15000 kPa | 879.4
323.15 K, 20000 kPa | 884.3
323.15 K, 25000 kPa | 889.2
323.15 K, 30000 kPa | 895
323.15 K, 35000 kPa | 900.9
328.15 K, 100 kPa | 856.4
328.15 K, 1000 kPa | 857.8
328.15 K, 2000 kPa | 859.2
328.15 K, 3000 kPa | 860.5
328.15 K, 3800 kPa | 861.5
328.15 K, 5000 kPa | 862.5
328.15 K, 10000 kPa | 868.4
328.15 K, 15000 kPa | 873.9
328.15 K, 20000 kPa | 879
328.15 K, 25000 kPa | 884.1
328.15 K, 30000 kPa | 890.1
328.15 K, 35000 kPa | 896.2
333.15 K, 100 kPa | 850.4
333.15 K, 1000 kPa | 851.7
333.15 K, 2000 kPa | 853
333.15 K, 3000 kPa | 854.4
333.15 K, 3800 kPa | 855.4
333.15 K, 5000 kPa | 856.8
333.15 K, 10000 kPa | 862.9
333.15 K, 15000 kPa | 868.5
333.15 K, 20000 kPa | 873.8
333.15 K, 25000 kPa | 879
333.15 K, 30000 kPa | 885.2
333.15 K, 35000 kPa | 891.4
338.15 K, 100 kPa | 844
338.15 K, 1000 kPa | 845.4
338.15 K, 2000 kPa | 846.8
338.15 K, 3000 kPa | 848.2
338.15 K, 3800 kPa | 849.3
338.15 K, 5000 kPa | 850.8
338.15 K, 10000 kPa | 857.1
338.15 K, 15000 kPa | 863
338.15 K, 20000 kPa | 868.5
338.15 K, 25000 kPa | 873.9
338.15 K, 30000 kPa | 880.3
338.15 K, 35000 kPa | 886.7
343.15 K, 100 kPa | 837.5
343.15 K, 1000 kPa | 839.1
343.15 K, 2000 kPa | 840.6
343.15 K, 3000 kPa | 842
343.15 K, 3800 kPa | 843.2
343.15 K, 5000 kPa | 844.5
343.15 K, 10000 kPa | 851.2
343.15 K, 15000 kPa | 857.3
343.15 K, 20000 kPa | 863
343.15 K, 25000 kPa | 868.5
343.15 K, 30000 kPa | 875.1
343.15 K, 35000 kPa | 881.6
348.15 K, 100 kPa | 829.4
348.15 K, 1000 kPa | 830.5
348.15 K, 2000 kPa | 832.3
348.15 K, 3000 kPa | 833.8
348.15 K, 3800 kPa | 835
348.15 K, 5000 kPa | 836.8
348.15 K, 10000 kPa | 845.5
348.15 K, 15000 kPa | 851.8
348.15 K, 20000 kPa | 857.7
348.15 K, 25000 kPa | 863.5
348.15 K, 30000 kPa | 870.2
348.15 K, 35000 kPa | 877
353.15 K, 1000 kPa | 824.3
353.15 K, 2000 kPa | 826
353.15 K, 3000 kPa | 827.5
353.15 K, 3800 kPa | 828.8
353.15 K, 5000 kPa | 830.6
353.15 K, 10000 kPa | 837.7
353.15 K, 15000 kPa | 844.3
353.15 K, 20000 kPa | 850.4
353.15 K, 25000 kPa | 856.1
353.15 K, 30000 kPa | 862.7
353.15 K, 35000 kPa | 869.6
358.15 K, 1000 kPa | 818.4
358.15 K, 2000 kPa | 820
358.15 K, 3000 kPa | 821.6
358.15 K, 3800 kPa | 822.8
358.15 K, 5000 kPa | 824.7
358.15 K, 10000 kPa | 832.1
358.15 K, 15000 kPa | 838.9
358.15 K, 20000 kPa | 845.2
358.15 K, 25000 kPa | 851
358.15 K, 30000 kPa | 857.6
358.15 K, 35000 kPa | 864.7
363.15 K, 1000 kPa | 811.8
363.15 K, 2000 kPa | 813.5
363.15 K, 3000 kPa | 815.3
363.15 K, 3800 kPa | 816.6
363.15 K, 5000 kPa | 818.5
363.15 K, 10000 kPa | 826.3
363.15 K, 15000 kPa | 833.3
363.15 K, 20000 kPa | 839.7
363.15 K, 25000 kPa | 845.8
363.15 K, 30000 kPa | 852.9
363.15 K, 35000 kPa | 860.2
368.15 K, 1000 kPa | 804.9
368.15 K, 2000 kPa | 806.8
368.15 K, 3000 kPa | 808.6
368.15 K, 3800 kPa | 810
368.15 K, 5000 kPa | 812.1
368.15 K, 10000 kPa | 820.2
368.15 K, 15000 kPa | 827.5
368.15 K, 20000 kPa | 834.3
368.15 K, 25000 kPa | 840.6
368.15 K, 30000 kPa | 848
368.15 K, 35000 kPa | 855.5
373.15 K, 1000 kPa | 798.5
373.15 K, 2000 kPa | 800.4
373.15 K, 3000 kPa | 802.4
373.15 K, 3800 kPa | 803.8
373.15 K, 5000 kPa | 806
373.15 K, 10000 kPa | 814.4
373.15 K, 15000 kPa | 822
373.15 K, 20000 kPa | 829
373.15 K, 25000 kPa | 835.5
373.15 K, 30000 kPa | 843
373.15 K, 35000 kPa | 850.6
378.15 K, 1000 kPa | 791.8
378.15 K, 2000 kPa | 793.8
378.15 K, 3000 kPa | 795.8
378.15 K, 3800 kPa | 797.3
378.15 K, 5000 kPa | 799.6
378.15 K, 10000 kPa | 808.5
378.15 K, 15000 kPa | 816.5
378.15 K, 20000 kPa | 823.7
378.15 K, 25000 kPa | 830.5
378.15 K, 30000 kPa | 838.4
378.15 K, 35000 kPa | 846.3
383.15 K, 1000 kPa | 784.8
383.15 K, 2000 kPa | 787.1
383.15 K, 3000 kPa | 789.1
383.15 K, 3800 kPa | 790.8
383.15 K, 5000 kPa | 793.2
383.15 K, 10000 kPa | 802.4
383.15 K, 15000 kPa | 810.7
383.15 K, 20000 kPa | 818.2
383.15 K, 25000 kPa | 825.3
383.15 K, 30000 kPa | 833.5
383.15 K, 35000 kPa | 841.6
388.15 K, 1000 kPa | 778.2
388.15 K, 2000 kPa | 780.5
388.15 K, 3000 kPa | 782.7
388.15 K, 3800 kPa | 784.4
388.15 K, 5000 kPa | 786.9
388.15 K, 10000 kPa | 796.4
388.15 K, 15000 kPa | 805.1
388.15 K, 20000 kPa | 813
388.15 K, 25000 kPa | 820.3
388.15 K, 30000 kPa | 828.8
388.15 K, 35000 kPa | 837.2
393.15 K, 1000 kPa | 771
393.15 K, 2000 kPa | 773.5
393.15 K, 3000 kPa | 775.9
393.15 K, 3800 kPa | 777.7
393.15 K, 5000 kPa | 780.4
393.15 K, 10000 kPa | 790.5
393.15 K, 15000 kPa | 799.4
393.15 K, 20000 kPa | 807.6
393.15 K, 25000 kPa | 815.2
393.15 K, 30000 kPa | 823.9
393.15 K, 35000 kPa | 832.4
